The term Ki denotes the equilibrium dissociation constant of an inhibitor or competing ligand from its target. The term inhibition denotes the change of the read-out against control, counted positive when it falls. Read a low inhibition as a response near the control.

The text below walks through data of ChEMBL document CHEMBL1142262, “New QSAR combined strategy for the design of A1 adenosine receptor agonists” (Bioorg Med Chem, 2008).

Some results are limits rather than exact numbers.

The target in one experiment is T1, Adenosine receptor A1 (Rattus norvegicus, UniProt P25099).
T1 sequence (P25099 whole entry): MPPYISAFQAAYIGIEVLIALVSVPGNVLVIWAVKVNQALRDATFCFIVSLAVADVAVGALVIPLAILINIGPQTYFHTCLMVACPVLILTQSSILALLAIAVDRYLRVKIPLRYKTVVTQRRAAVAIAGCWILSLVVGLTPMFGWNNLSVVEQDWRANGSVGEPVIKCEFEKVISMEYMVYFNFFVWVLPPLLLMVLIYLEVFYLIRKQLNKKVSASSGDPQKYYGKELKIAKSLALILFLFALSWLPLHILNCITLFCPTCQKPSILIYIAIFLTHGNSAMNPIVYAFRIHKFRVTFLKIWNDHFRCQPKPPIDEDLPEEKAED
Description: Displacement of [3H]R-N6-phenylisopropyladenosine from adenosine A1 receptor in rat cerebral cortical membrane. In kind it is cell membranes. Conditions: read-out: -Log Ki (converted). (In a radioligand displacement assay an active substance lowers the binding of a labelled ligand.)
`OCC1CC=CC1n1cnc2c(NC3CCCC3)ncnc21` (racemic): the Ki was 333 µM.

The same experiment, now with this note: read-out: Ki.
`OCC1CC=CC1n1cnc2c(NCc3ccccc3I)ncnc21` (racemic): the Ki was determined as 25.5 µM.

`OCC1CC=CC1n1cnc2c(NC3CCCC3)ncnc21` (racemic): the inhibition constant Ki worked out at 3 µM.

For `OCC1CC=CC1n1cnc2c(NC3CC3)ncnc21` (racemic), the Ki was 32.3 µM.

For the next experiment, the target named is T2, Adenosine receptor A1 (Rattus norvegicus) (UniProt P25099).
T2 sequence (whole entry): T1 sequence (P25099 whole entry)
The experiment is described as follows: Displacement of [3H]R-N6-phenylisopropyladenosine from adenosine A1 receptor in rat cerebral cortical membrane at 100 uM.
Settings: not given
In kind it is cell membranes.
In the case of `CNC(=O)C1CCCC1n1cnc2c(NC3CCCC3)ncnc21` (racemic), the inhibition came out at 31%.

The compound `CNC(=O)C1CC=CC1n1cnc2c(NC3CC3)ncnc21` (racemic) came in with an inhibition of 50%.

In turn, `CNC(=O)C1CCCC1n1cnc2c(NC3CC3)ncnc21` (racemic) yielded an inhibition of less than 10%.

On to `CNC(=O)C1CCCC1n1cnc2c(NCc3ccccc3)ncnc21` (racemic), for which the inhibition stood at 26%.

`CNC(=O)C1CC=CC1n1cnc2c(NCc3ccccc3)ncnc21` (racemic) registered an inhibition of less than 10%.

In turn, `CNC(=O)C1CC=CC1n1cnc2c(NC3CCCC3)ncnc21` (racemic) came in with an inhibition of less than 10%.

`NNc1ncnc2c1ncn2C1C=CCC1CO` (racemic) displayed an inhibition of 29%.

Compound `CNC(=O)C1CCCC1n1cnc2c(NCc3ccccc3I)ncnc21` (racemic) gave an inhibition of less than 10%.

Compound `CNC(=O)C1CCCC1n1cnc2c(N)ncnc21` (racemic) registered an inhibition of 25%.

The compound `CNC(=O)C1CC=CC1n1cnc2c(N)ncnc21` (racemic) showed an inhibition of 22%.
